Measured values reported in patent US20040005537A1, “Method of identifying toxic agents using differential gene expression” (priority 2000, published 2004).

Experiments:
rat heart tissue = experiment: GENECALLING differential gene expression analysis after dosing of serotonin modulating agents; format: in vivo, Sprague Dawley rats
Method in brief: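 Rats dosed with serotonin modulating agents, controls given sterile water or canola oil; tissue taken 24 h after the last dose. Total RNA converted to cDNA and profiled by GENECALLING differential expression analysis; fragments changed more than ±1.5-fold were selected.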

[1] = cited from earlier work

CCNC(C)Cc1cccc(C(F)(F)F)c1 (centres unmarked) [fenfluramine]
Effects on Transcription Level: Novel gene fragment, 445 bp, 85% SI to human skeletal muscle alpha 2 actinin [M86406] (rat heart tissue; CARDIOTOX 72): −2.0 fold | Effects on Transcription Level: Novel gene fragment, 246 bp, 89% SI to mouse ponsin-1 [AF078667] (rat heart tissue; CARDIOTOX 73): −2.8 fold | Effects on Transcription Level: Novel gene fragment, 126 bp, 77% SI to human DNA sequence from cosmid V311G7, between markers DXS366 and DXS87 on chromosome X [Z69304] (rat heart tissue; CARDIOTOX 74): +1.9 fold | Effects on Transcription Level: Novel gene fragment, 370 bp (rat heart tissue; CARDIOTOX 75): −3.0 fold | Effects on Transcription Level: Novel gene fragment, 337 bp, 78% SI to novel human protein AHNAK [M80899] (rat heart tissue; CARDIOTOX 76): −3.6 fold | Effects on Transcription Level: Novel gene fragment, 100 bp, 93% SI to human KIAA0750 protein [ABO18293] (rat heart tissue; CARDIOTOX 77): −9.0 fold | Effects on Transcription Level: Novel gene fragment, 44 bp (rat heart tissue; CARDIOTOX 78): −6.7 fold | Effects on Transcription Level: Novel gene fragment, 698 bp, 93% SI to mouse plenty-of-prolines-101 [AF062655] (rat heart tissue; CARDIOTOX 79): −2.5 fold | Effects on Transcription Level: Novel gene fragment, 660 bp, 84% SI to mouse membrane protein TMS-2 [AF181685] (rat heart tissue; CARDIOTOX 80): −3.7 fold | Effects on Transcription Level: Novel gene fragment, 115 bp (rat heart tissue; CARDIOTOX 81): −6.3 fold | Effects on Transcription Level: Novel gene fragment, 294 bp, 95% SI to mouse Ndr1 related protein Ndr2 [AB033921] (rat heart tissue; CARDIOTOX 82): −2.0 fold | Effects on Transcription Level: Novel gene fragment, 198 bp (rat heart tissue; CARDIOTOX 83): +2.7 fold | Effects on Transcription Level: Novel gene fragment, 730 bp, 86% SI to mouse E800 [Y10968] (rat heart tissue; CARDIOTOX 84): −2.4 fold | Effects on Transcription Level: Novel gene fragment, 294 bp, 98% SI to cysteine conjugate beta-lyase [S61960] (rat heart tissue; CARDIOTOX 85): −2.4 fold | Effects on Transcription Level: Aconitase (rat heart tissue; CARDIOTOX 86, GenBank A1243266): −3.4 fold | Effects on Transcription Level: Ribosomal protein L7 (rat heart tissue; CARDIOTOX 87, GenBank M17422): +2.5 fold | Effects on Transcription Level: Ribosomal protein L9 (rat heart tissue; CARDIOTOX 88, GenBank X51706): +11.0 fold | Effects on Transcription Level: Ribosomal protein L12 (rat heart tissue; CARDIOTOX 89, GenBank X53504): −1.5 fold | Effects on Transcription Level: 18S, 5.8S, and 28S ribosomal RNA's (rat heart tissue; CARDIOTOX 90, GenBank V01270): +6 fold | Effects on Transcription Level: Pyruvate dehydrogenase kinase 2 (PDK2) (rat heart tissue; CARDIOTOX 91, GenBank U10357): −7.7 fold | Effects on Transcription Level: D-Binding Protein (DBP) (rat heart tissue; CARDIOTOX 92, GenBank J03179): −1.9 fold | Effects on Transcription Level: Lipoprotein lipase (rat heart tissue; CARDIOTOX 93, GenBank L03294): −2.3 fold | Effects on Transcription Level: Non-neuronal enolase (rat heart tissue; CARDIOTOX 94, GenBank X02610): +3.5 fold | Effects on Transcription Level: Glycogen phosphorylase (muscle isozyme) (rat heart tissue; CARDIOTOX 95, GenBank L10669): −2.3 fold | Effects on Transcription Level: Cytochrome c oxidase subunit IV (rat heart tissue; CARDIOTOX 96, GenBank X14209): +10.0 fold | Effects on Transcription Level: Alpha-globin (rat heart tissue; CARDIOTOX 97, GenBank M17083): +3.4 fold | Effects on Transcription Level: Beta-globin (rat heart tissue; CARDIOTOX 98, GenBank X06701): +3.6 fold | Effects on Transcription Level: Myoglobin (rat heart tissue; CARDIOTOX 99, GenBank AF197916): +4.0 fold | Effects on Transcription Level: Titin (rat heart tissue; CARDIOTOX 100, GenBank L38717): −1.6 fold | Effects on Transcription Level: Skeletal muscle actin (rat heart tissue; CARDIOTOX 101, GenBank V01218): −14.9 fold | Effects on Transcription Level: Myosin light chain 2 (MLC2) (rat heart tissue; CARDIOTOX 102, GenBank M11851): +2.4 fold | Effects on Transcription Level: Alpha cardiac myosin heavy chain (rat heart tissue; CARDIOTOX 103, GenBank X15938): −7.5 fold | Effects on Transcription Level: Troponin I (rat heart tissue; CARDIOTOX 104, GenBank U77354): +1.8 fold | Effects on Transcription Level: Cardiac calsequestrin (rat heart tissue; CARDIOTOX 105, GenBank AF001334): −2.4 fold | Effects on Transcription Level: Sulfated glycoprotein 2 (rat heart tissue; CARDIOTOX 106, GenBank M16975): −1.8 fold | Effects on Transcription Level: Aquaporin 7 (rat heart tissue; CARDIOTOX 107, GenBank AB000507): +1.5 fold | Effects on Transcription Level: Carnitine/acylcarnitine carrier protein (rat heart tissue; CARDIOTOX 108, GenBank X97831): −2.6 fold | Effects on Transcription Level: Glu-Pro Dipeptide Repeat (rat heart tissue; CARDIOTOX 109, GenBank U40628): −5.6 fold | Effects on Transcription Level: Cystatin beta (rat heart tissue; CARDIOTOX 110, GenBank X54737): +2.7 fold | Effects on Transcription Level: Novel gene fragment, 593 bp, 90% SI to human calcineurin B-like protein [Z08983] (rat heart tissue; CARDIOTOX 111): +2.1 fold | Effects on Transcription Level: Novel gene fragment, 179 bp, 88% SI to human titin [X90568] (rat heart tissue; CARDIOTOX 112): −3.0 fold | Effects on Transcription Level: Novel gene fragment, 700 bp, 91% SI to mouse periplakin (PPL) [AF116523] (rat heart tissue; CARDIOTOX 113): +2.0 fold | Effects on Transcription Level: Long chain acyl-CoA dehydrogenase (LCAD) (rat heart tissue; CARDIOTOX 114, GenBank J05029): +1.8 fold | Effects on Transcription Level: Sulfated glycoprotein 1 (SGP-1) (rat heart tissue; CARDIOTOX 115, GenBank M19936): −2.0 fold | Effects on Transcription Level: Catalase (rat heart tissue; CARDIOTOX 116, GenBank M11670): +2.1 fold | Effects on Transcription Level: Alpha-fodrin (A2A) (Nonerythroid spectrin alpha subunit) (rat heart tissue; CARDIOTOX 117, GenBank AF084186): −1.8 fold | Effects on Transcription Level: Cardiac specific sodium channel alpha-subunit (rat heart tissue; CARDIOTOX 118, GenBank M27902): −2.1 fold | Effects on Transcription Level: Glu-Pro Dipeptide Repeat (rat heart tissue; CARDIOTOX 119, GenBank U40628): +4.2 fold | Effects on Transcription Level: Novel gene fragment, 200 bp, 64% SI to human KIAA0733 protein [AB018316] (rat heart tissue; CARDIOTOX 120): −1.7 fold | Effects on Transcription Level: RNA polymerase II transcription factor SIII (p18 subunit) (rat heart tissue; CARDIOTOX 121, GenBank L42855): +1.7 fold | Effects on Transcription Level: Protein-tyrosine phosphalase (LRP) (rat heart tissue; CARDIOTOX 122, GenBank L01702): +2.0 fold | Effects on Transcription Level: Skeletal muscle selenoprotein W (SelW) (rat heart tissue; CARDIOTOX 123, GenBank U25264): −1.8 fold | Effects on Transcription Level: Sarcoplasmic reticulum 2+-Ca-ATPase (rat heart tissue; CARDIOTOX 124, GenBank X15635): −1.6 fold | Effects on Transcription Level: Ribosomal protein S7 (rat heart tissue; CARDIOTOX 125, GenBank X53377): +1.0 fold | Effects on Transcription Level: Ribophorin I (rat heart tissue; CARDIOTOX 126, GenBank X05300): +1.6 fold | Effects on Transcription Level: Beta cardiac myosin heavy chain (rat heart tissue; CARDIOTOX 127, GenBank X15939): +2.3 fold | Effects on Transcription Level: ADP-ribosylation factor 1 (rat heart tissue; CARDIOTOX 128, GenBank L12380): +1.2 fold | Effects on Transcription Level: Laminin receptor (rat heart tissue; CARDIOTOX 129, GenBank U04942): +2.6 fold | Effects on Transcription Level: Novel gene fragment, 206 bp, 89% SI to human seryl-tRNA synthetase [X91257] (rat heart tissue; CARDIOTOX 130): +1.8 fold | Effects on Transcription Level: Annexin VI (rat heart tissue; CARDIOTOX 131, GenBank X86086): −1.8 fold | Effects on Transcription Level: Novel gene fragment, 325 bp, 90% SI to mouse N-RAP [U76618] (rat heart tissue; CARDIOTOX 132): +1.7 fold | Effects on Transcription Level: Novel gene fragment, 61 bp (CARDIOTOX 134) (rat heart tissue; LD10 dose for three days): −2.4 fold | Effects on Transcription Level: Novel gene fragment, 337 bp (CARDIOTOX 133) (rat heart tissue; LD10 dose for three days): −2.4 fold | Effects on Transcription Level: Novel gene fragment, 378 bp, 88% SI to human coatomer protein (COPA) [U24105] (CARDIOTOX 138) (rat heart tissue; LD10 dose for three days): −1.6 fold | Effects on Transcription Level: Long chain 3-ketoacyl-CoA thiolase (CARDIOTOX 136) (rat heart tissue; LD10 dose for three days, GenBank D16479): −1.1 fold | Effects on Transcription Level: TATA-binding protein interacting protein 120 (TIP120) (CARDIOTOX 135) (rat heart tissue; LD10 dose for three days, GenBank D87671): +1.9 fold | Effects on Transcription Level: Serine protease (CARDIOTOX 139) (rat heart tissue; LD10 dose for three days, GenBank D88250): +4.0 fold | Effects on Transcription Level: Thymosin beta-4 (CARDIOTOX 137) (rat heart tissue; LD10 dose for three days, GenBank M34043): +1.6 fold | Effects on Transcription Level: Annexin VI (no CARDIOTOX assignment given) (rat heart tissue; LD10 dose for three days, GenBank X86086): −1.7 fold | classification as cardiotoxic or noncardiotoxic serotonin modulating agent ([1]; grouping used to generate the distinguishing gene profiles): cardiotoxic | side effect reported in a subset of patients ([1]; patients to which they are administered): valvular heart disease
